# According to patent US8252308B2, “Feminine anti-itch gel” (C.B. Fleet Company Inc., priority 2005, dated 2012):
# Structures can show the parent of a compound that is named as a salt.
# Experiment: pH and solubility behaviour of the anesthetic in water
# Assay type: physicochemical
# From the text: In a preferred aspect, the pH modifier and the quantity of the pH modifier are selected to provide a pH to the composition of from 4 to 7, from 4.5 to 6.5, or more preferably from 5 to 5.3 when pramoxine serves as an anesthetic. In one aspect, the preferred pH for the gel is a pH value where the anesthetic is substantially present in its neutral state. For example, the hydrochloride salt of pramoxine has an acidic pH in water of about 4. However, at about pH 5 the pramoxine salt deprotonates to a neutral form that may provide increased transfer of the anesthetic into the vulvar tissues. Thus, a sufficient quantity of a base may be added to the gel as a pH modifier to provide the anesthetic in a substantially neutral form. However, at an upper pH value, such as about 5.2 for pramoxine, the anesthetic may precipitate out of the water phase, thus reducing the clarity of the gel. Thus, in a more preferred aspect, the pH modifier is chosen to provide a pH to the gel at which the majority of the anesthetic is present in its neutral state while remaining substantially solubilized.
compound,measurement,setting,value
CCOC(=O)c1ccc(N)cc1 [benzocaine],water solubility,,water insoluble
"CCCCOc1ccc(OCCCN2CCOCC2)cc1 [hydrochloride salt of pramoxine, pramoxine hydrochloride]",pH at which the salt deprotonates to a neutral form,,~5
same,upper pH value at which the anesthetic may precipitate out of the water phase,,about 5.2
same,pH in water,hydrochloride salt in water,about 4
